Laboratory results reported in publication PMC9936921 (Oncogene, 2018).
Like-named read-outs stand apart in the source and are kept apart here.

What was measured:
Test in all cases: SPR
Assay type in all cases: binding
CD99 [1] = target: T1, CD99 (Homo sapiens, UniProt P14209)
T1 sequence (P14209 23-185): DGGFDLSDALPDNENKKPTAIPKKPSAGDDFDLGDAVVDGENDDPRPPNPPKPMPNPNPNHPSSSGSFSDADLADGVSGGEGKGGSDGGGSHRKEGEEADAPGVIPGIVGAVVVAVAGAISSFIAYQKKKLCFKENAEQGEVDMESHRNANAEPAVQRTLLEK

CD99 [2] = target: CD99 (Homo sapiens, UniProt P14209); remark: listed apart in the source
CD99 [3] = target: T1, CD99; remark: listed apart in the source

Nc1nc(Cl)nc2c1ncn2[C@@H]1O[C@H](CO)[C@@H](O)[C@@H]1F [clofarabine]
Kd (CD99 [1]): 5.3 ± 3.2 µM

Nc1nc(Cl)nc2c1ncn2[C@H]1C[C@H](O)[C@@H](CO)O1 [cladribine]
Kd (CD99 [2]): 3.8 ± 3.3 µM

Nc1nc(Cl)nc2c1ncn2[C@@H]1O[C@H](COP(=O)(O)OP(=O)(O)OP(=O)(O)O)[C@@H](O)[C@@H]1F [clofarabine-5’-triphosphate]
Kd (CD99 [3]): 3.7 µM
